The target in this assay is T1, human TRPA1 (Homo sapiens, UniProt O75762).
T1 construct: expressed in transfected cells; host or cells: Human embryonic kidney-derived 293T cells, transiently transfected with the pcDNA3.1/zeo(+) human TRPA1 plasmid
Nature of the assay: Measurement of TRPA1 antagonist activity (intracellular calcium increase, FLIPR, allylisothiocyanate stimulation). The settings on record: 293T cells transfected with human TRPA1; allylisothiocyanate 20 μM; concentration for 50% inhibitory rate; read-out: antagonism hTRPA1. The assay is classed as cell-based. The source says:
Measurement of TRPA1 Antagonist Activity
Human TRPA1 Expression Plasmid
As cDNA encoding human TRPA1 (GenBank accession No. […]), a commercially available product was purchased (manufactured by Kazusa DNA Research Institute, clone No.: pFN21AB7348, item No.: FHC07217). Using this as a template, full-length human TRPA1 gene was amplified using the primer sequences shown below, by reaction using DNA polymerase (manufactured by Stratagene, trade name: PfuUltra High-Fidelity DNA Polymerase).
A recognition site (underlined) of restriction enzyme HindIII was added to the 5′ side, and XbaI site (underlined) was added to the 3′ side, and GTT of the template sequence was changed to termination codon TAG (bold). The obtained double stranded DNA was enzyme-digested with HindIII and XbaI, and introduced into a multicloning site of expression plasmid pcDNA3.1/zeo(+) (manufactured by Invitrogen) to give a human TRPA1 expression plasmid.
Human embryonic kidney-derived 293T cells were cultured in Dulbecco's Modified Eagle Medium containing 10% fetal bovine serum, 10 unit penicillin, and 10 μg streptomycin, plated on a petri dish having a diameter of 10 cm at 3×10^6 cells, and cultured for 24 hr. A medium containing a reduced amount of serum (manufactured by Invitrogen, trade name: OPTI-MEM, 600 μL), a gene insertion reagent (manufactured by Mirus Bio, trade name: Mirus TransIT-293, 18 μL), and human TRPA1 expression plasmid (6 μg) were mixed, the total amount of the mixture was added to the cells on the petri dish to allow for gene transfer. The cells were recovered about 8 hr later, plated on a poly-D-lysine coated 384 well black/clear bottom plate at 7,500-12,000 cells/well, and cultured overnight.
Measurement of Intracellular Calcium Increase
The 384 well plate was recovered, and the medium was removed. A calcium-bonded fluorescent indicator (manufactured by Molecular Device, trade name: Calcium4 Assay Kit, 40 μL) dissolved in assay buffer (1×HBSS, 20 mM HEPES, pH 7.2) was added, and the cells were stained in a 37° C. incubator for 1 hr. The cells were taken out at room temperature and left standing for 15 min or more. A test substance (10 μL) was added by a 384 well type dispenser, and the mixture was incubated at room temperature for 10 min. Then, allylisothiocyanate (12.5 μL) at a final concentration of 20 μM was added by a fluorescence imaging plate reader (manufactured by Molecular Device, FLIPR), and changes in the relative fluorescence intensity were measured for 5 min.
Test Substance Preparation
The test substance was dissolved in dimethyl sulfoxide and serially diluted with an assay buffer containing 0.1% bovine serum albumin (1×HBSS, 20 mM HEPES, pH 7.2) to a 5-fold concentration of the evaluation concentration. Allylisothiocyanate, which is a known TRPA1 activator, was dissolved in dimethyl sulfoxide to 100 mM, and further diluted 5-fold (100 μM) of the final concentration, like the test substance.
Calculation of Antagonist Activity
Under the test substance-free conditions, the maximum variation range of the fluorescence intensity before and after allylisothiocyanate stimulation was defined to be 100% activity rate, and the variation range before and after buffer stimulation was defined as 0% activity rate. The activity rate on addition of the test substance was determined, and the numerical value obtained by subtracting the activity rate from 100 was defined to be an inhibitory rate. 1050, which is the concentration of the test substance necessary for reaching the 50% inhibitory rate, was calculated from the sigmoid approximate curve by a spreadsheet software Excel-Fit.
Background: Calcium flux is commonly read through the fluorescence of an indicator in the cells.

T1 sequence (O75762 whole entry): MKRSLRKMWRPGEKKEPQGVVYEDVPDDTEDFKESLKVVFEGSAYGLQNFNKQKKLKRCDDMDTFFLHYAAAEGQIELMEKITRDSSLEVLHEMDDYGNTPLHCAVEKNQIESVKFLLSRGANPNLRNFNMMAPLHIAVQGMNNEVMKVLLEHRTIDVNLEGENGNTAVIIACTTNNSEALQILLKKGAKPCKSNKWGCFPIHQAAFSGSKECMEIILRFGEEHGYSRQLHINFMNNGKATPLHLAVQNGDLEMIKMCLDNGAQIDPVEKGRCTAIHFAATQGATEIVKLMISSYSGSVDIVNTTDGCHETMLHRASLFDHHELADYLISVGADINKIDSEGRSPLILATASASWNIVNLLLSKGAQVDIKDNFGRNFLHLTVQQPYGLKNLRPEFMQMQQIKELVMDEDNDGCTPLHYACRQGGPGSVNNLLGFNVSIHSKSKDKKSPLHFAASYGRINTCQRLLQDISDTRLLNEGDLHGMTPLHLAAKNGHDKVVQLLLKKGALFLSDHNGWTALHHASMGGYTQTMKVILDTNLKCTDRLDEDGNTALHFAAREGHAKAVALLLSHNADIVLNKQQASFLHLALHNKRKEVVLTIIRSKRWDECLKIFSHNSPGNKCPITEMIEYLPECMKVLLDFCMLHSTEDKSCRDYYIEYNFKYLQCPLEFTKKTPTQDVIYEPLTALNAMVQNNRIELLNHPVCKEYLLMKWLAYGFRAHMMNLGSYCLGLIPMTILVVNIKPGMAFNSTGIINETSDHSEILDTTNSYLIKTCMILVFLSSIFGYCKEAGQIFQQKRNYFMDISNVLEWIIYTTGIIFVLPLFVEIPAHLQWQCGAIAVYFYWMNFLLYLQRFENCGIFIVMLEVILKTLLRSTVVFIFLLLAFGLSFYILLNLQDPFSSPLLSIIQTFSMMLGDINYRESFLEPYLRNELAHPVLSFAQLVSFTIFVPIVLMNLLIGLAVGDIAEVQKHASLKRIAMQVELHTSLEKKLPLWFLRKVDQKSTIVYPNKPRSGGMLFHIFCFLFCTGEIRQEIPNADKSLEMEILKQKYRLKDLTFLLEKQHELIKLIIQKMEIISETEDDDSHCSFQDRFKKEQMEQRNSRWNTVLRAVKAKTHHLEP

For `O=C(NCc1ccc(COc2ccc(F)cc2)cc1)[C@@H]1CCCN1S(=O)(=O)c1ccc(Cl)s1` [Example 46, (2S)-1-(5-chlorothiophene-2-sulfonyl)-N-({4-[(4-fluoro-phenoxy)methyl]phenyl}methyl)pyrrolidine-2-carboxamide], the IC50 was 390 nM.
Turning to `O=C(NCc1ccc(COc2ccc(Cl)cc2)cc1)[C@@H]1CCCN1S(=O)(=O)c1ccc(Cl)s1` [Example 47, (2S)-N-({4-[(4-chlorophenoxy)methyl]phenyl}methyl)-1-(5-chlorothiophene-2-sulfonyl)pyrrolidine-2-carboxamide], the IC50 turned out to be 620 nM.
As to `COC(=O)c1ccc(OCc2ccc(CNC(=O)[C@@H]3CCCN3S(=O)(=O)c3ccc(Cl)s3)cc2)cc1` [Example 48, methyl 4-((4-({[(2S)-1-(5-chlorothiophene-2-sulfonyl)pyrrolidine-2-carbonyl]amino}methyl)phenyl)methoxy)benzoate], the IC50 worked out at 630 nM.
As to `N#Cc1ccc(OCc2ccc(CNC(=O)[C@@H]3CCCN3S(=O)(=O)c3ccc(Cl)s3)cc2)cc1` [Example 49, (2S)-1-(5-chlorothiophene-2-sulfonyl)-N-({4-[(4-cyano-phenoxy)methyl]phenyl}methyl)pyrrolidine-2-carboxamide], the IC50 turned out to be 2100 nM.
As to `O=C(NCc1ccc(COc2cccc(C(F)(F)F)c2)cc1)[C@@H]1CCCN1S(=O)(=O)c1ccc(Cl)s1` [Example 50], the IC50 worked out at 242 nM.
For the molecule `CC(C)(C)Oc1ccc(OCc2ccc(CNC(=O)[C@@H]3CCCN3S(=O)(=O)c3ccc(Cl)s3)cc2)cc1` [Example 51, (2S)-N-({4-[(4-tert-butoxyphenoxy)methyl]phenyl}methyl)-1-(5-chlorothiophene-2-sulfonyl)pyrrolidine-2-carboxamide], the IC50 stood at 630 nM.
In the case of `O=C(NCc1ccc(COc2cccc(OC(F)(F)F)c2)cc1)[C@@H]1CCCN1S(=O)(=O)c1ccc(Cl)s1` [Example 52, (2S)-1-(5-chlorothiophene-2-sulfonyl)-N-((4-{[3-(trifluoro-methoxy)phenoxy]methyl}phenyl)methyl)pyrrolidine-2-carboxamide], the IC50 is 210 nM.
For `Cc1cccc(OCc2ccc(CNC(=O)[C@@H]3CCCN3S(=O)(=O)c3ccc(Cl)s3)cc2)c1` [Example 53, (2S)-1-(5-chlorothiophene-2-sulfonyl)-N-({4-[(3-methyl-phenoxy)methyl]phenyl}methyl)pyrrolidine-2-carboxamide], the IC50 is 500 nM.
For `COc1cccc(OCc2ccc(CNC(=O)[C@@H]3CCCN3S(=O)(=O)c3ccc(Cl)s3)cc2)c1` [Example 54, (2S)-1-(5-chlorothiophene-2-sulfonyl)-N-({4-[(3-methoxy-phenoxy)methyl]phenyl}methyl)pyrrolidine-2-carboxamide], the IC50 amounted to 550 nM.
Next, `O=C(NCc1ccc(COc2cccc(F)c2)cc1)[C@@H]1CCCN1S(=O)(=O)c1ccc(Cl)s1` [Example 55, (2S)-1-(5-chlorothiophene-2-sulfonyl)-N-({4-[(3-fluoro-phenoxy)methyl]phenyl}methyl)pyrrolidine-2-carboxamide]: 230 nM.
The value for `O=C(NCc1ccc(COc2cccc(Cl)c2)cc1)[C@@H]1CCCN1S(=O)(=O)c1ccc(Cl)s1` [Example 56, (2S)-N-({4-[(3-chlorophenoxy)methyl]phenyl}methyl)-1-(5-chlorothiophene-2-sulfonyl)pyrrolidine-2-carboxamide] was 250 nM; that for `O=C(NCc1ccc(COc2cc(F)cc(F)c2)cc1)[C@@H]1CCCN1S(=O)(=O)c1ccc(Cl)s1` [Example 57, (2S)-1-(5-chlorothiophene-2-sulfonyl)-N-({4-[(3,5-difluoro-phenoxy)methyl]phenyl}methyl)pyrrolidine-2-carboxamide] was 310 nM; that for `COC(=O)c1cccc(OCc2ccc(CNC(=O)[C@@H]3CCCN3S(=O)(=O)c3ccc(Cl)s3)cc2)c1` [Example 58, methyl 3-((4-({[(2S)-1-(5-chlorothiophene-2-sulfonyl)pyrrolidine-2-carbonyl]amino}methyl)phenyl)methoxy)benzoate] was 310 nM.
For the molecule `CN(C)c1cccc(OCc2ccc(CNC(=O)[C@@H]3CCCN3S(=O)(=O)c3ccc(Cl)s3)cc2)c1` [Example 59, (2S)-1-(5-chlorothiophene-2-sulfonyl)-N-((4-{[3-(dimethyl-amino)phenoxy]methyl}phenyl)methyl)pyrrolidine-2-carboxamide], the IC50 came to 838 nM.
As to `O=C(NCc1ccc(COc2ccccc2C(F)(F)F)cc1)[C@@H]1CCCN1S(=O)(=O)c1ccc(Cl)s1` [Example 60, (2S)-1-(5-chlorothiophene-2-sulfonyl)-N-((4-{[2-(trifluoro-methyl)phenoxy]methyl}phenyl)methyl)pyrrolidine-2-carboxamide], the IC50 stood at 420 nM.
With `Cc1ccccc1OCc1ccc(CNC(=O)[C@@H]2CCCN2S(=O)(=O)c2ccc(Cl)s2)cc1` [Example 61, (2S)-1-(5-chlorothiophene-2-sulfonyl)-N-({4-[(2-methyl-phenoxy)methyl]phenyl}methyl)pyrrolidine-2-carboxamide], the IC50 amounted to 190 nM.
`COc1ccccc1OCc1ccc(CNC(=O)[C@@H]2CCCN2S(=O)(=O)c2ccc(Cl)s2)cc1` [Example 62, (2S)-1-(5-chlorothiophene-2-sulfonyl)-N-({4-[(2-methoxy-phenoxy)methyl]phenyl}methyl)pyrrolidine-2-carboxamide]: the IC50 is 1100 nM.
As for `O=C(NCc1ccc(COc2ccccc2F)cc1)[C@@H]1CCCN1S(=O)(=O)c1ccc(Cl)s1` [Example 63, (2S)-1-(5-chlorothiophene-2-sulfonyl)-N-({4-[(2-fluoro-phenoxy)methyl]phenyl}methyl)pyrrolidine-2-carboxamide], the IC50 was 440 nM.
In the case of `O=C(NCc1ccc(COc2ccccc2Cl)cc1)[C@@H]1CCCN1S(=O)(=O)c1ccc(Cl)s1` [Example 64, (2S)-N-({4-[(2-chlorophenoxy)methyl]phenyl}methyl)-1-(5-chlorothiophene-2-sulfonyl)pyrrolidine-2-carboxamide], the IC50 was 480 nM.
Consider `O=C(NCc1ccc(COc2c(F)cccc2F)cc1)[C@@H]1CCCN1S(=O)(=O)c1ccc(Cl)s1` [Example 65, (2S)-1-(5-chlorothiophene-2-sulfonyl)-N-({4-[(2,6-difluoro-phenoxy)methyl]phenyl}methyl)pyrrolidine-2-carboxamide], for which the IC50 is 130 nM.
Next, `COC(=O)c1ccccc1OCc1ccc(CNC(=O)[C@@H]2CCCN2S(=O)(=O)c2ccc(Cl)s2)cc1` [Example 66, methyl 2-((4-({[(2S)-1-(5-chlorothiophene-2-sulfonyl)pyrrolidine-2-carbonyl]amino}methyl)phenyl)methoxy)benzoate]: 780 nM.
The value for `O=C(NCc1ccc(COc2cncc(Cl)c2)cc1)[C@@H]1CCCN1S(=O)(=O)c1ccc(Cl)s1` [Example 67, (2S)-N-({4-[(5-chloro-3-pyridyl)oxymethyl]phenyl}methyl)-1-(5-chlorothiophene-2-sulfonyl)pyrrolidine-2-carboxamide] was 730 nM; that for `O=C(NCc1ccc(COc2ccc3ncccc3c2)cc1)[C@@H]1CCCN1S(=O)(=O)c1ccc(Cl)s1` [Example 68, (2S)-1-(5-chlorothiophene-2-sulfonyl)-N-{[4-(6-quinolyloxy-methyl)phenyl]methyl}pyrrolidine-2-carboxamide] was 4400 nM.
With `O=C(NCc1ccc(COc2cc3ccccc3cn2)cc1)[C@@H]1CCCN1S(=O)(=O)c1ccc(Cl)s1` [Example 69], the IC50 is 1800 nM.
Next, `O=C(NCc1cccc(COc2ccccc2)c1)[C@@H]1CCCN1S(=O)(=O)c1ccc(Cl)s1` [Example 70]: 340 nM.
As to `O=C(NCc1cccc(COc2ccc(C(F)(F)F)cc2)c1)[C@@H]1CCCN1S(=O)(=O)c1ccc(Cl)s1` [Example 71], the IC50 is 270 nM.
